Reference: US4931450A, “Amino acid derivatives” (Novo Industri A/S, priority 1986, dated 1990)
pIC50: −log10 of the molar value. Where a name gives a salt, the structure may show the parent alone. Read-outs that look alike come from different tables or passages of the source.

Assays:
[1] = test system: DBA/2 mice (convulsions induced by loud noise; Rotarod); test: Rotarod test versus convulsions induced by loud noise in DBA/2 mice (ratio ED50 Rotarod/ED50 tonic convulsions); type: in vivo, male DBA/2 mice; settings: i.p., Rotarod test 25 min after injection, then 14 kHz tone at 111 dB for 30 sec
Description: The convulsions induced by loud noise in the DBA/2 strain of mice is regarded as a reliable model for evaluating anti-epileptic drug effects, cf. E. N. Petersen et al.: Psychopharmacol. 83 (1984), 240, and A. G. Chapman et al.: Arzmeim.Forsch. 10 (1984), 1261. The Rotarod and Traction tests were used to evaluate the sedative properties of the test drugs.
Male DBA/2 mice (8±1 g) were used in all experiments. The animals were pretrained on the Rotarod (6 rpm; rod diameter 2.5 cm) for 1 min. The compounds tested were injected intra-peritoneally. Twenty-five min, later the animals underwent a 2 min. test on the Rotarod. The number of failures to stay on the rod was counted. An error rate higher than 10 was assigned the maximum score of 10. Immediately after the Rotarod test, the animals were tested in a Traction test, cf. Psychopharmacol. above. In this test, the animal was required to maintain grasp on a thin rod (diameter 2.5 mm) with the forepaws for five sec. and, within this period of time, to show a traction response (grasping onto the rod with one of the hindlegs). The performance on the test was based on the absence or presence of the traction response with the 5 sec. test period. Finally, after the Traction test, the animals were individually placed in a chamber in which they were exposed for 30 sec. to a 14 kHz sinus tone at 111 dB. During this period of time, the following behaviours were noted: "wild running", clonic convulsions and death.
The compounds tested were dissolved in distilled water or suspended in 5% chremophore. The injection volume was 0.2 ml/mouse.
In table 2, below, the ratio ED50 Rotarod/ED50 tonic convulsions is given for the compounds tested. NO-05-0340 is R-N-(4-(2-methylphenyl)-4-(3-methyl-2-thienyl)but-3-en-1-yl)nipecotic acid and NO-05-0356 is R-N-(4-(N-methylpyrrol-2-yl)-4-phenylbut-3-en-1-yl)nipecotic acid.

GABA uptake = settings: orally active; cited from earlier work
GABA-uptake = test: In vitro GABA-uptake inhibition, essentially as described by Fjalland, 3H-GABA as substrate; type: biochemical
Description: GABA-uptake inhibition was measured essentially as described by Fjalland (Acta Pharmacol. et. Toxicol. (1978), 42, 73-76) using 25 mM of 3H-GABA as a substrate.

[2] = 3H-GABA substrate, two separate experiments, 3-5 concentrations of test compound, read-out: IC50
[3] = R3 nipecotic acid, read-out: in vitro test value

Row | Compound | pIC50 (GABA-uptake; [2]) | further results
1 | O=C(O)CC1CCN(CCC=C(c2ccccc2)c2ccccc2)C1 (stereo not drawn) [SK&F 100561, N-(4,4-diphenyl-3-butenyl)-β-homoproline, reference compound] | – | ratio ED50 Rotarod/ED50 tonic convulsions [1]: 7; GABA uptake inhibition, oral activity (GABA uptake): orally active inhibitors of GABA uptake
2 | Cc1ccccc1C(=CCCN1CCC=C(C(=O)O)C1)c1sccc1C [Example 15] | 6.93 | –
3 | Cc1ccc(C(=CCCN2CCC[C@@H](C(=O)O)C2)c2sccc2C)c(C)c1 [Example 10, R-N-(4-(2,4-dimethylphenyl)-4-(3-methyl-2-thienyl)but-3-en-1-yl)nipecotic acid hydrochloride] | 6.72 | –
4 | CCCn1cccc1C(=CCCN1CCC[C@@H](C(=O)O)C1)c1ccccc1C [Example 14] | 7.07 | –
5 | O=C(O)C1CCCN(CCC=C(c2ccccc2)c2cccs2)C1 (stereo not drawn) [SK&F 100604J, N-(4-sphenyl-4-(2-thienyl)-3-butenyl)nipecotic acid] | – | GABA uptake inhibition, oral activity (GABA uptake): orally active inhibitors of GABA uptake
6 | Cl.Cn1cccc1C(=CCCN1CCC[C@@H](C(=O)O)C1)c1ccccc1 [NO-05-0356, R-N-(4-(N-Methylpyrrol-2-yl)-4-phenylbut-3-en-1-yl)nipecotic acid hydrochloride] | 7.17 | ratio ED50 Rotarod/ED50 tonic convulsions [1]: 21
7 | O=C(O)C1=CCCN(CCC=C(c2ccccc2)c2cccs2)C1 (mixture of isomers) [phenyl, thien-2-yl, guvacine, (E/Z), reference compound] | 6.66 | –
8 | O=C(O)C1CCCN(CCC=C(c2ccccc2)c2cccs2)C1 (racemic) [reference compound] | 6.33 | pIC50 (GABA-uptake; [3]): 6.33
9 | O=C(O)C1=CCCN(CCC=C(c2ccccc2)c2ccccc2)C1 [SK&F 100330A, N-(4,4-diphenyl-3-butenyl)guvacine] | – | GABA uptake inhibition, oral activity (GABA uptake): orally active inhibitors of GABA uptake
10 | O=C(O)C1CCCN(CCC=C(c2ccccc2)c2ccccc2)C1 (stereo not drawn) [SK&F 89976A, N-(4,4-diphenyl-3-butenyl)nipicotic acid, reference compound] | – | ratio ED50 Rotarod/ED50 tonic convulsions [1]: 5; GABA uptake inhibition, oral activity (GABA uptake): orally active inhibitors of GABA uptake
11 | Cn1cccc1C(=CCCN1CCC=C(C(=O)O)C1)c1ccccc1 [NO-05-0387, N-(4-(N-Methylpyrrol-2-yl)-4-phenylbut-3-en-1-yl)guvacine hydrochloride] | 6.90 | –
12 | Cc1ccccc1C(=CCCN1CCC[C@@H](C(=O)O)C1)c1sccc1C [NO-05-0340, R-N-(4-(2-Methylphenyl)-4-(3-methyl-2-thienyl)but-3-en-1-yl)nipecotic acid] | 7.13 | pIC50 (GABA-uptake; [3]): 7.13; ratio ED50 Rotarod/ED50 tonic convulsions [1]: 8
13 | CCn1cccc1C(=CCCN1CCC=C(C(=O)O)C1)c1ccccc1 [Example 59] | 6.79 | –
14 | COc1cccc(C(=CCCN2CCC[C@@H](C(=O)O)C2)c2sccc2C)c1 [Example 18] | 7.25 | –
15 | Cc1cc(Cl)ccc1C(=CCCN1CCC[C@@H](C(=O)O)C1)c1cccn1C [Example 57] | 6.83 | –
16 | CCn1cccc1C(=CCCN1CCC[C@@H](C(=O)O)C1)c1ccccc1C [Example 58] | 7.31 | –
17 | Cc1cc(Cl)ccc1C(=CCCN1CCC[C@@H](C(=O)O)C1)c1sccc1C [Example 16] | 7.05 | –
18 | O=C(O)[C@@H]1CCCN(CCC=C(c2ccccc2)c2cccs2)C1 (mixture of isomers) [reference compound] | 6.63 | –
19 | Cc1ccsc1C(=CCCN1CCC[C@@H](C(=O)O)C1)c1cccc(Cl)c1C [Example 49] | 6.98 | –
20 | Cc1ccsc1C(=CCCN1CCC[C@@H](C(=O)O)C1)c1cccc(Cl)c1 (mixture of isomers) | 6.91 | –
21 | Cc1ccsc1C(=CCCN1CCC[C@@H](C(=O)O)C1)c1ccccc1F [Example 24] | 6.66 | –
